This passage reports IC50 results from publication PMC9369069, “Development of Sesamol Carbamate-L-Phenylalanine Prodrug Targeting L-Type Amino Acid Transporter1 (LAT1) as a Potential Antiproliferative Agent against Melanoma” (International Journal of Molecular Sciences, 2022).

The target of this test is T1, L-type amino acid transporter 1 (LAT1) (Homo sapiens, UniProt Q01650).
T1 construct: gene SLC7A5
Briefly: cell-based.

Where two headings read alike, the source gives them in different places.

T1 sequence (Q01650 whole entry): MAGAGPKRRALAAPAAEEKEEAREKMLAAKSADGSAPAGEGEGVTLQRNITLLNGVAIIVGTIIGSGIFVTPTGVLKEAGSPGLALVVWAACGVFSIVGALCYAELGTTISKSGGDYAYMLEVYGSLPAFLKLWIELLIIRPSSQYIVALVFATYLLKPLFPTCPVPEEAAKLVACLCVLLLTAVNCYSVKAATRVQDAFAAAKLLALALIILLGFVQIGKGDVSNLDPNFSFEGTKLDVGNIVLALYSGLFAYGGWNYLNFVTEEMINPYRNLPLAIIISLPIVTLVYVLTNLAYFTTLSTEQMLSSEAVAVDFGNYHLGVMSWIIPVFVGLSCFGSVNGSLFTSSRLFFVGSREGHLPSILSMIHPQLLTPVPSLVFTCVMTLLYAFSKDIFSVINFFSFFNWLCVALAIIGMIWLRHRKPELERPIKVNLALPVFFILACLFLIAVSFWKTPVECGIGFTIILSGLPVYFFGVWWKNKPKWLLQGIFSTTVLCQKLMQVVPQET
T1 sequence (P08195 103-630 partner): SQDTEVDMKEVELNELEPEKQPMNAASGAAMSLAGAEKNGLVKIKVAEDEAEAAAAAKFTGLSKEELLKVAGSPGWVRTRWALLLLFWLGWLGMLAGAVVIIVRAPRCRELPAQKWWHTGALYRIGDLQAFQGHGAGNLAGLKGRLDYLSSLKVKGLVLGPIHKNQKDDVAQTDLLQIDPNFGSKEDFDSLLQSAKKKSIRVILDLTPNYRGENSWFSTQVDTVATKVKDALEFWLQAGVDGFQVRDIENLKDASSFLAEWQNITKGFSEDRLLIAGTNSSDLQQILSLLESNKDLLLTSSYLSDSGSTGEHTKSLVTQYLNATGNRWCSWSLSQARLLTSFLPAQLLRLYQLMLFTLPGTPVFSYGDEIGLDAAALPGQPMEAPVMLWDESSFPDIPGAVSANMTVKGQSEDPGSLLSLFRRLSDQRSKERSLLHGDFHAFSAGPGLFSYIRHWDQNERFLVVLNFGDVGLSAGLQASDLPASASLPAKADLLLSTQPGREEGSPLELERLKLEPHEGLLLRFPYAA

For `N[C@@H](Cc1ccc(NC(=O)Oc2ccc3c(c2)OCO3)cc1)C(=O)O` [4-sesamol carbamate-L-phenylalanine prodrug], the IC50 stood at 631 ± 38 µM.

`Oc1ccc2c(c1)OCO2` [Sesamol] came in with an IC50 of 4760 ± 219 µM. On to `N[C@@H](Cc1ccccc1)C(=O)O` [L-Phenylalanine], for which, where the note is “read-out: IC50”, the IC50 was found to be 96.8 ± 11.5 µM.

By IC50 is commonly meant the midpoint of a concentration-inhibition curve.
